From ChEMBL document CHEMBL1140268, “Novel and potent cyclic cyanamide-based cathepsin K inhibitors” (Bioorg Med Chem Lett, 2005)
pIC50: −log10 of the molar value.

Columns and labels:
[1] = target: Procathepsin L (Homo sapiens, UniProt P07711); assay: Inhibitory concentration against human cathepsin L using 5 uM Cbz-Phe-Arg-AMC
[2] = target: T1, Cathepsin K (Homo sapiens, UniProt P43235); assay: Inhibitory concentration against human cathepsin K using 10 uM Cbz-Phe-Arg-AMC
T1 sequence (P43235 whole entry): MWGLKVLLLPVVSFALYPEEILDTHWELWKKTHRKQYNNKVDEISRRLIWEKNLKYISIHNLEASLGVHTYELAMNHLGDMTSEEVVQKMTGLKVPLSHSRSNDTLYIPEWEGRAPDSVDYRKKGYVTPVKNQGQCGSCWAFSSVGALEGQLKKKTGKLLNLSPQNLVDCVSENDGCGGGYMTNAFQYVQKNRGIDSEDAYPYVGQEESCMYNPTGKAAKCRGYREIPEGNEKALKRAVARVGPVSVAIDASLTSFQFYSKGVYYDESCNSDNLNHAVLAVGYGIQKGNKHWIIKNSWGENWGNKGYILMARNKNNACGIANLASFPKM

[3] = target: T2, Pro-cathepsin H (Homo sapiens, UniProt P09668); assay: Inhibitory concentration against human cathepsin H using 50 uM L-Arg-beta-naphthalamide
T2 sequence (P09668 whole entry): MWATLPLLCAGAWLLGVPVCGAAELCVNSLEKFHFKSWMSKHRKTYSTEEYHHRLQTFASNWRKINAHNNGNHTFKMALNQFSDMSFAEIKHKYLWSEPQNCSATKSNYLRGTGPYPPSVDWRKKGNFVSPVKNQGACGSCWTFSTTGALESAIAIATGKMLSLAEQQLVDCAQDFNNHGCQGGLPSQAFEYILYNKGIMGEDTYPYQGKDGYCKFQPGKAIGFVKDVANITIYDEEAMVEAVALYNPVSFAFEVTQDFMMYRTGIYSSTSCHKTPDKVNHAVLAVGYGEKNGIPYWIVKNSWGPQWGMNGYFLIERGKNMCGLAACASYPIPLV

[4] = target: Cathepsin B (Homo sapiens, UniProt P07858); assay: Inhibitory concentration against human cathepsin B using 10 uM Cbz-Phe-Arg-AMC

Sequence of Procathepsin L (P07711 whole entry): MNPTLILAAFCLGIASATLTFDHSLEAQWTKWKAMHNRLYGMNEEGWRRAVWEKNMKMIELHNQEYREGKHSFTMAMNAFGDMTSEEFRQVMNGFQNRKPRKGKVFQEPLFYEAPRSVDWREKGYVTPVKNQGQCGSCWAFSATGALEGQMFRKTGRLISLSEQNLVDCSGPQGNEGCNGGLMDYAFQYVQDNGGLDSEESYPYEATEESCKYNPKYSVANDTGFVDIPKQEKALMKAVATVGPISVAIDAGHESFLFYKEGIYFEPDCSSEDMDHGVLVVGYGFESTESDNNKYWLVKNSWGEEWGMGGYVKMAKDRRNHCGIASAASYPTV

Structure (SMILES) | pIC50 [1] | pIC50 [2] | pIC50 [3] | pIC50 [4]
C[C@@H](CC1CCCCC1)OC(=O)C1CCCN1C#N (stereo not given in full) | 6.89 | 8.74 | 6.24 | 6.51
CC(C)(C)NC(=O)[C@H]1CCCN1C#N | – | 5.09 | – | –
CC[C@@H](CC1CCCCC1)OC(=O)N1CCC(NC#N)C1 (stereo not given in full) | – | 6.70 | – | –
CC(C)(C)OC(=O)[C@H]1CCCN1C#N | – | 6.52 | – | –
COC(=O)[C@@H]1CN(C#N)C[C@H]1c1ccc(OC)c(OC2CCCC2)c1 | – | 6.37 | – | –
C[C@@H](CC1CCCCC1)OC(=O)N[C@H]1CCN(C#N)C1 | 7.09 | 7.92 | 5.08 | 6.17
CC(C)(C)OC(=O)[C@@H]1CCCN1C#N | – | 7.22 | – | –
C[C@@H](CC1CCCCC1)OC(=O)C1CCN1C#N (stereo not given in full) | 9.15 | 10.32 | 7.40 | 8.62
CC(C)(C)OC(=O)N[C@@H]1CCN(C#N)C1 | – | 6.70 | – | –
CC(C)(C)OC(=O)N[C@H]1CCN(C#N)C1 | – | 7.09 | – | –
CC(C)(C)OC(=O)N1CCCN1C#N | – | 6.42 | – | –
CCCC[C@H](C=O)NC(=O)OC(C)(C)C | – | 7.29 | – | –
CC[C@@H](CC1CCCCC1)OC(=O)NC1CCN(C#N)C1 (stereo not given in full) | – | 8.05 | – | –
CN(C(=O)[C@H]1CCCN1C#N)C(C)(C)C | – | < 4.89 | – | –
CC(C)(C)OC(=O)[C@@H]1CCCCN1C#N | – | < 4.89 | – | –
N#CN1CCCC1 [CYANO-PYRROLIDINE] | – | 5.68 | – | –
